The values that follow come from patent publication US7407752B2, “Oligonucleotide complexes for use as anti-viral therapeutics” (priority 2003, dated 2008).

For data set [1] the following is noted: intravenous; cited from earlier work.
Data set [2] is described as follows: Systemic (intraperitoneal) delivery of Cy5-TFO-3 to mouse TG, fluorescence imaging. The class given is in vivo, Balb/c mice. To be noted: 167 mcg intraperitoneal, 6 or 24 hours after injection. On the procedure:
Cy5-labeled TFO-3 (SEQ ID 2) was then synthesized and HPLC purified. 167 mcg of Cy5-TFO-3 (SEQ ID 2) was then systemically administered via an intraperitoneal injection into uninfected and latently infected Balb/c mice. The animals were sacrificed and dissected 6 or 24 hours after injection and the TG's imaged under a red laser light source (680 nm). An uninjected, uninfected mouse was also imaged as a control for autofluorescence (nil). Fluorescence of Cy5 was detectable in the TG's of Cy5-labeled TFO-3 (SEQ ID 2) treated mice.

The next data set relates to HSV-1. Kind of data set: HSV-1 plaque reduction on Vero cells after incubation with TFO and ultraviolet-A radiation. The conditions noted are these: for viral titer as percent of the unirradiated virus only control: 1 μM TFO.
Data set [3] concerns HSV-1 LAT target sequence duplex. Kind of data set: Triplex formation in vitro (native polyacrylamide gel). The class given is binding. The protocol:
The target sequence bound by TFO-3 (SEQ ID 2) yielded a relatively clean duplex when end-labeled with ^32P and allowed to anneal to its purine complement. One fmole […] [The absolute amount of target DNA was one femtomole=1×10^−15 moles placed in solution to a concentration of 1.0 nM=1.0 nanomoles/liter] of this duplex was then incubated at 37 degrees C. with increasing concentrations of the […] in a binding buffer containing 10 mM Tris, pH 7.5, 1 mM spermine, 20 mM KCl, and 10% sucrose, according to a published protocol. The DNA complexes—single-strand, double-strand, and triplex—were separated in a native polyacrylamide gel. Triplex DNA complex formation was detected at a triplex:duplex ratio of 10:1. Triplex formation was virtually complete at a triplex:duplex ratio of 100:1, corresponding to a triplex oligonucleotide concentration of 100 nM, consistent with other reports in the literature and below that believed to be achievable in vivo.

Data set [4] relates to TG neurons. Kind of data set: Movement of 32P-labeled TFO-3 into rat TG neuron cultures. It is filed as cell-based.
For data set [5], the system named is HSV-1 Target-3 reporter construct C2A. The experiment in a line: Luciferase reporter transcription inhibition, construct C2A in HEK-293. It is filed as cell-based, human. To be noted: HEK-293, 1 or 10 μM TFO, 24 hours.
The subject of data set [6] is parent (control) reporter construct pGL3. The experiment in a line: Luciferase reporter transcription inhibition, parent construct pGL3 in HEK-293. The class given is cell-based, human. To be noted: HEK-293, 1 or 10 μM TFO, 24 hours, construct lacking HSV-1 target sequence.
In data set [7] the test system is TG neurons. The experiment in a line: Ex vivo delivery of TFO-3 to latently infected mouse TG. The conditions noted are these: 42 micromolar, 1.5 hrs ex vivo. On the procedure: Ex vivo delivery of TFOs was then performed by incubating latently infected mouse TG ex vivo for 1.5 hrs in a 42 micromolar solution of TFO-3.
Setting [8] is: Example 9, 1 μM, UVA 40 minutes.
[9] abbreviates: 0.5 nM starting concentration, +20 ng/ml NGF.

Where “and” joins values, the source holds several entries; their conditions need not be identical. Equal entries are not always repeated.

Consider `Nc1nc2c(ncn2COCCO)c(=O)[nH]1` [Acyclovir], for which the steady-state trough concentration in data set [1] is 2 μg/ml and 8 μM.

For “Cy5-labeled TFO-3: TFO-3 (SEQ ID 2) labeled with Cy5, HPLC purified (GGGAGGAGGGAGGGAAGGAGGGGG; DNA, backbone not given here; Cy5 label attached, triplex-forming oligonucleotide, further chemistry not fully specified)”, the “fluorescence of Cy5 in the TG's” value in data set [2] is reported as “detectable”.

For “TFO-1: purine motif triplex-forming oligonucleotide binding a target site in the HSV-1 LAT domain, SEQ ID 1 (GAAGAGGGGGGGGGGAAGAAG; DNA, backbone not given here)”, the antiviral effect result with HSV-1 (setting [8]) was “no measurable antiviral effect”.

As to “TFO-3: purine motif triplex-forming oligonucleotide binding a target site in the HSV-1 LAT domain, SEQ ID 2 (GGGAGGAGGGAGGGAAGGAGGGGG; further chemistry not given here)”, in data set [3] (37 degrees C., target duplex 1.0 nM), the “TFO concentration at which triplex formation is virtually complete” value came to 100 nM. Also, the “TFO concentration at which triplex formation begins” value in data set [3] (HSV-1 LAT target) amounted to 10 nM. Further, the “average cellular oligonucleotide (32P) concentration” value in the data set on TG neurons [4] (setting [9]) was determined as 95 nM. Further, the “average oligonucleotide (32P) concentration in the supernatants” value with TG neurons [4] (setting [9]) is 0.44 nM. In the data set on TG neurons [4] (0.5 nM, 2, 6 or 24 hours), the “uptake into the neurons” value was “progressively taken up”. For the same compound, the luciferase production entry in data set [5] is listed as “significantly inhibited”; in data set [6] it was “did not inhibit”. The “fluorescence in TG neurons” value in the data set with TG neurons [7] is “Intense red fluorescence”. For the same compound, the entries for the “viral titer as percent of the unirradiated virus only control” value in the data set with HSV-1 (UVA 0 min), in the data set with HSV-1 (UVA 20 min) and in the data set with HSV-1 (UVA 40 min) were “approximately 80%”, “approximately 50%” and approximately 30%, respectively. Besides, in the data set on HSV-1 (Example 7, strain 17 syn+, 1 μM, UVA 40 min), the “percent of virus only control viral titer” value is “approximately 20%”. Besides, in the data set with HSV-1 (Example 8, 1 μM, UVA 40 minutes), the “viral killing (plaque-reduction) added to that of UVA alone” value is on record as 40%. Besides, in the data set on HSV-1 (setting [8]), the “reduction of viral titers” value is on record as 45%.
